As a reminder, the IC50 is the concentration that gives 50% inhibition.

In assay [1] the test system is human pancreatic cancer PK59 cells. Description: In vivo pharmacodynamic study, PK59 subcutaneous xenograft tumor model in BALB/c nude mice. The note with it: gavage once daily. As to the method:
To study the in vivo efficacy of a compound of the present disclosure in BALB/c nude mice subcutaneous xenograft tumor model of human pancreatic cancer PK59 cells.
Laboratory animals: Female BALB/c nude mice, 6-8 weeks old, weighing 18-22 g; supplier. Beijing Vital River Laboratory Animal Technology Co., Ltd.
(1) Cell culture. Human pancreatic cancer PK59 cells were cultured in vitro in a monolayer, and the culture conditions were 10% fetal bovine serum added to Gibco RMPI1640 medium, incubated at 37° C. in a 5% CO2 incubator. Routine passage was performed twice a week with trypsin-EDTA for digestion. When the cell saturation was 80%-90% and the required number was reached, the cells were collected, counted, and inoculated.
(2) Tumour cell inoculation and grouping: 0.2 mL (2×10^6) of PK59 cells (Matrigel was added in a volume ratio of 1:1) was subcutaneously inoculated into the right back of each mouse, and dosing was started when the mean tumor volume reached about 104.4 mm^3, with 6 animals in each group.
The vehicle was 5% DMSO/10% solutol/85% water. Control group: The vehicle was administered via gavage once daily at a dose of 10 μL/g; treatment group: After dissolving the test compound in the vehicle, the compound was administered by gavage once daily.
(3) The tumor diameter was measured with a vernier caliper twice weekly, and the tumor volume (V) was calculated. The formula is: V=0.5a×b^2, where a and b are the long and short diameters of the tumor, respectively. The tumor inhibitory efficacy of the test compound was evaluated by the tumor growth inhibition rate (TGI). The calculation formula is: TGI %=[1−(Mean tumor volume at the end of dosing in a treatment group−Mean tumor volume at the start of dosing in this treatment group)/(Mean tumor volume at the end of treatment in the vehicle control group−Mean tumor volume at the start of treatment in the vehicle control group)×100%.

In the next assay the test system is A427 cell line. Description: In vitro cell proliferation experiment (5 days), A427. The assay is classed as cell-based. The note with it: A427, 5 days; read-out: Inhibitory Activity IC50. How it is done: (§1) RPMI 1640 medium, DMEM, Ham's F12 medium, F12K medium, IMDM and penicillin/streptomycin antibiotics were purchased from Gibco, fetal bovine serum was purchased from Hyclone, Envision multilabel plate reader (PerkinElmer). […]
(§2) The test compound was diluted by 5-fold to 8 concentrations with a pipette, i.e., from 2 mM to 25.6 nM, and replicate wells were set up for the experiment. […] Another cell plate was prepared, and the signal value was read as the maximum value (the maximum value in the following equation) on the day of dosing for data analysis.
(§3) 50 μL of cell viability chemiluminescent detection reagent was added to the cell plate and incubated at room temperature for 30 minutes to stabilize the luminescence signal. A multilabel plate reader was used for reading. […]

In the next assay the test system is SW620 cells. Description: In vitro cell proliferation experiment (5 days), SW620. Type of assay: cell-based. As to conditions: SW620, 5 days; read-out: Inhibitory Activity IC50. How it is done: as §1, §2, §3

As for `CCn1c(-c2cc(N3CCN(C)CC3)cnc2C(C)OC)c2c3cc(ccc31)-c1csc(n1)CC(NC(=O)C1C(C)C1C)C(=O)N1NC(C(=O)OCC(C)(C)C2)C2CC1C2` (single isomer, unassigned) [Compound 6A], in assay [1] (0.5 mpk), the “Tumour Volume (mm^3) Day 1” value is reported as 103.6 mm^3, the “Tumour Volume (mm^3) Day 7” value was determined as 111.0 mm^3, the “Tumour Volume (mm^3) Day 14” value came to 112.4 mm^3 and the “TGI (%) Day 22” value was 101%. The “Tumour Volume (mm^3) Day 22” value in assay [1] (0.5 mpk) came out at 96.4 mm^3. Also, in assay [1] (2 mpk), the “Tumour Volume (mm^3) Day 1” value is 103.5 mm^3, the “Tumour Volume (mm^3) Day 7” value amounted to 64.3 mm^3, the “Tumour Volume (mm^3) Day 14” value turned out to be 45.5 mm^3 and the “TGI (%) Day 22” value amounted to 107%. Further, in assay [1] (2 mpk), the “Tumour Volume (mm^3) Day 22” value is given as 43.3 mm^3. In assay [1] (5 mpk), the “Tumour Volume (mm^3) Day 1” value is listed as 103.8 mm^3, the “Tumour Volume (mm^3) Day 7” value worked out at 65.0 mm^3, the “Tumour Volume (mm^3) Day 14” value is given as 35.7 mm^3 and the “TGI (%) Day 22” value was 108%. Moreover, in assay [1] (5 mpk), the “Tumour Volume (mm^3) Day 22” value stood at 34.3 mm^3. For the same compound, the concentration for half-maximal inhibition (IC50) in the assay with A427 cell line was determined as 13.3 nM. Also, the 50% inhibitory concentration (IC50) with SW620 cells was 0.2 nM.

The values above are taken from patent publication US12458647B2, “Macrocyclic derivative and use thereof” (Guangzhou Joyo Pharmatech Co., Ltd., priority 2022, dated 2025).
